Measurements reported in ChEMBL document CHEMBL1201862, “PubChem BioAssay data set” (2004).
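The compound was tested at five concentrations on cells cultured in 96-well plates, with a 48-hour exposure period. The concentration for 50% growth inhibition is given as GI50.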 The source made the active and inactive calls. Rule as the data show it: active = GI50 up to about 1.1 µM and inactive = higher.

Key:
Assay in all cases: NCI anticancer screen, dose series, 48 h
M14 = system: M14
SF-539 = system: SF-539
HCT-15 = system: HCT-15
UACC-257 = system: UACC-257
RPMI-8226 = system: RPMI-8226
Malme-3M = system: Malme-3M
CCRF-CEM = system: CCRF-CEM
SR = system: SR
HL-60 = system: HL-60
SK-MEL-5 = system: SK-MEL-5
KM12 = system: KM12
LOX IMVI = system: LOX IMVI
A498 = system: A498
OVCAR-8 = system: OVCAR-8
K562 = system: K562
RXF 393 = system: RXF 393
OVCAR-5 = system: OVCAR-5
SNB-75 = system: SNB-75
A549 = system: A549
SK-OV-3 = system: SK-OV-3

Compound	GI50 (M14)	GI50 (SF-539)	GI50 (HCT-15) [µM]	GI50 (UACC-257)	GI50 (RPMI-8226)	GI50 (Malme-3M)	GI50 (CCRF-CEM)	GI50 (SR)	GI50 (HL-60)	GI50 (SK-MEL-5)	GI50 (KM12)	GI50 (LOX IMVI)	GI50 (A498)	GI50 (OVCAR-8)	GI50 (K562)	GI50 (RXF 393)	GI50 (OVCAR-5)	GI50 (SNB-75)	GI50 (A549)	GI50 (SK-OV-3)
COC(=O)c1s/c(=N\C(=S)N(C)C)n(-c2ccc(Cl)cc2)c1C(=O)OC	> 100 µM (inactive)	95.5 µM (inactive)	> 100	> 100 µM (inactive)	> 100 µM (inactive)	> 100 µM (inactive)	> 100 µM (inactive)	> 100 µM (inactive)	> 100 µM (inactive)	> 10 µM (inactive)	> 100 µM (inactive)	> 100 µM (inactive)	> 100 µM (inactive)	> 100 µM (inactive)	> 100 µM (inactive)	78.9 µM (inactive)	> 100 µM (inactive)	> 10 µM (inactive)	> 100 µM (inactive)	> 10 µM (inactive)
COC(=O)c1nc(N)nc(C(=O)OC)c1C(=O)c1ccccc1	> 100 µM (inactive)	> 100 µM (inactive)	> 100	> 100 µM (inactive)	> 100 µM (inactive)	> 100 µM (inactive)	> 100 µM (inactive)	> 100 µM (inactive)	> 100 µM (inactive)	> 100 µM (inactive)	> 100 µM (inactive)	> 100 µM (inactive)	> 100 µM (inactive)	> 100 µM (inactive)	> 100 µM (inactive)	> 100 µM (inactive)	> 100 µM (inactive)	54.1 µM (inactive)	> 100 µM (inactive)	> 100 µM (inactive)
CCOC(=O)NC1CC2CCC1(OC)C=C2C (stereo not given)	> 100 µM (inactive)	> 100 µM (inactive)	> 100	> 100 µM (inactive)	> 100 µM (inactive)	> 100 µM (inactive)	> 100 µM (inactive)	> 100 µM (inactive)	> 100 µM (inactive)	> 100 µM (inactive)	> 100 µM (inactive)	> 100 µM (inactive)	> 100 µM (inactive)	> 100 µM (inactive)	> 100 µM (inactive)	> 100 µM (inactive)	> 100 µM (inactive)	> 100 µM (inactive)	> 100 µM (inactive)	> 100 µM (inactive)
CN(Cc1cccc2ccccc12)Cc1cccc2ccccc12	27.5 µM (inactive)	23.8 µM (inactive)	22.2	50.1 µM (inactive)	22.6 µM (inactive)	20 µM (inactive)	16.6 µM (inactive)	30.8 µM (inactive)	13.4 µM (inactive)	18.5 µM (inactive)	41.5 µM (inactive)	34.3 µM (inactive)	28.8 µM (inactive)	70.5 µM (inactive)	35.1 µM (inactive)	47.1 µM (inactive)	43 µM (inactive)	46.1 µM (inactive)	34 µM (inactive)	65.6 µM (inactive)
CC(C)=CCCC(C)[C@H]1CC(O)C2(C)C3=CCC4C(C)(C)[C@@H](O)CC[C@]4(C)C3=CC[C@]12C (stereo not given in full)	3.27 µM (inactive)	2.09 µM (inactive)	5.01	22.5 µM (inactive)	3.27 µM (inactive)	13.5 µM (inactive)	5.25 µM (inactive)	11.6 µM (inactive)	3.69 µM (inactive)	14.3 µM (inactive)	4.36 µM (inactive)	0.0902 µM (active)	3.98 µM (inactive)	1.8 µM (inactive)	1.59 µM (inactive)	2.92 µM (inactive)	25 µM (inactive)	7.48 µM (inactive)	2.66 µM (inactive)	7.82 µM (inactive)
CC(=O)N/C=C/c1cc(O)ccc1O	33.3 µM (inactive)	35.5 µM (inactive)	40.8	31 µM (inactive)	40.3 µM (inactive)	> 44.6 µM (inactive)	25.3 µM (inactive)	22 µM (inactive)	10.1 µM (inactive)	36.5 µM (inactive)	37.7 µM (inactive)	30.1 µM (inactive)	51.3 µM (inactive)	45.7 µM (inactive)	35.9 µM (inactive)	31.7 µM (inactive)	29.4 µM (inactive)	48.3 µM (inactive)	> 61.8 µM (inactive)	> 58.5 µM (inactive)
Cc1ccc(NC=O)c(-c2c(N)[nH]c(=S)[nH]c2=O)c1	> 100 µM (inactive)	> 100 µM (inactive)	> 100	> 100 µM (inactive)	> 100 µM (inactive)	> 100 µM (inactive)	> 100 µM (inactive)	> 100 µM (inactive)	> 100 µM (inactive)	> 100 µM (inactive)	> 100 µM (inactive)	> 100 µM (inactive)	> 100 µM (inactive)	> 100 µM (inactive)	> 100 µM (inactive)	> 100 µM (inactive)	> 100 µM (inactive)	> 100 µM (inactive)	> 100 µM (inactive)	12.3 µM (inactive)
